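Test compounds were applied to cells in 96-well plates for 48 hours at 5 doses. Abbreviation: GI50, concentration required for 50% inhibition of growth.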 The source made the active and inactive calls. Rule as the data show it: active = GI50 up to about 1.1 µM and inactive = higher.

The source of these data is ChEMBL document CHEMBL1201862, “PubChem BioAssay data set” (2004).

Among the test systems are 786-0; A549; CAKI-1; CCRF-CEM; HCT-116; HCT-15; HOP-92; IGROV-1; LOX IMVI; MDA-MB-435; MDA-N; MOLT-4; Malme-3M; NCI-H226; NCI/ADR-RES; RXF 393; SK-OV-3; SNB-75; U-251; BT-549.
Common to all, as to test: growth of human tumour cells (NCI), 48 h

In the case of `CC(C)CCc1n[nH]c(=O)n1/N=C\c1ccccc1`, the GI50 in the assay with 786-0 is > 100 µM (inactive); with A549, > 100 µM (inactive); in the assay with CAKI-1, > 10 µM (inactive); in the assay on CCRF-CEM, > 100 µM (inactive); in the assay with HCT-116, > 100 µM (inactive); with HCT-15, > 100 µM. Further, the GI50 in the assay with HOP-92 was > 100 µM (inactive); in the assay with IGROV-1 it was > 100 µM (inactive); in the assay with LOX IMVI, > 100 µM (inactive); in the assay on MDA-MB-435, > 100 µM (inactive); in the assay on MDA-N, > 100 µM (inactive); in the assay on MOLT-4, 67.8 µM (inactive). Besides, the GI50 was > 100 µM (inactive) with Malme-3M; > 100 µM (inactive) in the assay with NCI-H226; 57.4 µM (inactive) in the assay with NCI/ADR-RES; > 100 µM (inactive) with RXF 393; > 100 µM (inactive) in the assay on SK-OV-3; > 100 µM (inactive) in the assay with SNB-75. The GI50 with U-251 is > 100 µM (inactive).
Consider `O=c1c(Cl)c(Cl)c(=O)c2sc3cc(Cl)ccc3[nH]c1=2`, for which the GI50 in the assay with 786-0 is > 100 µM (inactive); in the assay with A549 it was > 100 µM (inactive); in the assay on BT-549, 2.81 µM (inactive); in the assay with CAKI-1 it was > 100 µM (inactive); in the assay on HCT-116 it was 33 µM (inactive); with HCT-15, 42.3 µM. For the same compound, the GI50 is 16.7 µM (inactive) with HOP-92; 10.5 µM (inactive) in the assay with IGROV-1; 34 µM (inactive) in the assay with MDA-MB-435; 2.47 µM (inactive) with MOLT-4; 40.1 µM (inactive) in the assay with Malme-3M; 27.3 µM (inactive) with NCI-H226. The GI50 in the assay with NCI/ADR-RES was 5.36 µM (inactive); with RXF 393 it was 66.4 µM (inactive); in the assay on SK-OV-3, > 100 µM (inactive); in the assay with SNB-75, 47.4 µM (inactive); in the assay on U-251 it was 31.4 µM (inactive).
As for `CCOC(=O)CCC(NC(=O)c1ccc(Oc2nc3ccccc3nc2-c2ccccc2)cc1)C(=O)OCC` (centres undefined), the GI50 in the assay with 786-0 was 3.67 µM (inactive); in the assay on A549, 37.8 µM (inactive); in the assay on CAKI-1 it was 19.5 µM (inactive); in the assay on CCRF-CEM, > 100 µM (inactive); in the assay with HCT-116 it was 12.9 µM (inactive); with HCT-15 it was > 100 µM. In addition, the GI50 with HOP-92 is 5.51 µM (inactive); in the assay with IGROV-1, 35.4 µM (inactive); in the assay with LOX IMVI, 43.7 µM (inactive); in the assay with MDA-MB-435, > 52.1 µM (inactive); in the assay with MDA-N it was 45 µM (inactive); in the assay on MOLT-4, > 100 µM (inactive). Further, the GI50 in the assay with Malme-3M was 12.7 µM (inactive); with NCI-H226, 13.2 µM (inactive); in the assay with NCI/ADR-RES, 6.34 µM (inactive); in the assay with RXF 393, 20.1 µM (inactive); in the assay on SK-OV-3 it was 27.9 µM (inactive); with SNB-75, 8.85 µM (inactive). Further, the GI50 in the assay with U-251 is 15.1 µM (inactive).
Turning to `O=C(NC(O)(C(F)(F)F)C(F)(F)F)c1ccccc1`, the GI50 with 786-0 is > 100 µM (inactive); with A549, > 100 µM (inactive); in the assay with CAKI-1 it was > 100 µM (inactive); with CCRF-CEM, > 100 µM (inactive); in the assay with HCT-116, > 100 µM (inactive); in the assay on HCT-15, > 100 µM. Besides, the GI50 in the assay on HOP-92, in the assay on IGROV-1, with LOX IMVI, with MDA-MB-435, in the assay on MDA-N and in the assay with MOLT-4 was > 100 µM (inactive) throughout. Also, the GI50 with Malme-3M is > 100 µM (inactive); in the assay with NCI-H226, 51.6 µM (inactive); with NCI/ADR-RES, > 100 µM (inactive); with RXF 393, > 100 µM (inactive); in the assay on SK-OV-3, > 100 µM (inactive); with SNB-75 it was > 100 µM (inactive). For the same compound, the GI50 with U-251 was > 100 µM (inactive).
